Source: patent US20090252816A1, “Inhalable Gaseous Medicament Based On Xenon And Nitrous Oxide” (AIR LIQUIDE SANTE (INRTERNATIONAL), priority 2003, published 2009)

How the values were obtained:
[1] = test system: sensitization to d-amphetamine; assay: d-amphetamine sensitization protocol, locomotor activity in actimetry cages; type: in vivo, rat; conditions: for blocking of the sensitization process (locomotor activity in d-amphetamine test on D7): remainder oxygen, 3 h after each d-amphetamine injection D1-D3; for concentration necessary to block the sensitization process: d-amphetamine sensitization
Description: Male Sprague-Dawley rats weighing about 250 g were used in the experiments.
(§1) 15 groups of animals (of 7 or 8 animals each) were used, including 10 groups during the actual sensitization studies and 5 other groups during the histological studies of the neurons of the posterior and retrosplenial cingulate cortices.
The animals were injected intraperitoneally (i.p.) for 3 consecutive days from D1 to D3 with d-amphetamine (Amph; 1 mg/ml/kg) or, depending on the case, with a saline solution (1 ml/kg) for the control animals.
After each injection, the rats were immediately placed for 3 hours in a closed chamber, 100 liters in volume, flushed in dynamic regime with a constant flow rate of 5 l.min^−1, either with air (group 1: saline; group 2: Amph), or with 50% by volume of nitrous oxide (group 3: saline; group 4: Amph) or 75% (group 5: saline; group 6: Amph), or with 50% by volume of xenon (group 7: saline; group 8: Amph) or 75% (group 9: saline, group 10: Amph); the rest of the mixtures (remainder to 100%) being oxygen.
The locomotor activity of the animals of groups 1 to 10 was evaluated on D6, after an i.p. injection of a saline solution (1 ml/kg), and on D7 after an i.p. injection of d-amphetamine (1 mg/ml/kg). The locomotor activity of the animals in response to these injections was recorded using actimetry cages with photoelectric cells (Imétronic, Pessac. France).
The results obtained, given in the attached FIGS. 1 and 2, are expressed as the mean±standard error. The comparison of the groups was performed by means of nonparametric tests: Kruskall-Wallis analysis of variance, followed in the event of a significant result by the Mann-Whitney U test.

[2] = test system: dopamine release in the nucleus accumbens septi; assay: dopamine release in slices of nucleus accumbens septi by differential pulse voltammetry; type: cell-based, rat
Description: In addition, the preparation of the slices of nucleus accumbens septi was performed as follows. The animals were decapitated under mild anesthesia with halothane and the brain was then rapidly removed. Frontal sections of 300 μm, corresponding to an anteriority of +0.70/1.20 mm (according to Bregma, Paxinos and Watson, 1998) were taken using a chopper (Mickie Laboratory Engineering Company, Gomshall, Surrey, UK). The brain slices were placed for recovery in a buffered saline solution with a temperature of 3-4° C. for at least 1 hour before use for neurochemical study.
The measurement of the dopamine release was performed by the technique of normal differential pulse voltammetry using a single-fiber carbon electrode 10 μm in diameter and 250 μm long (CFN10-250; World Precision Instruments, Aston, Stevenage, Hertfordshire, UK). The electrochemical treatment enabling this type of electrode to be made sensitive to dopamine consisted in applying a continuous current of −1.5 V into a phosphate-buffered saline solution for 20 seconds, followed by a triangular current of +2.6 V also for 20 seconds on the working electrode (Brazell et al., 1987). Under these conditions, the dopaminergic signal appears at a potential of +100 mV.
The rat brain slices were then placed in an organ tank and infused with artificial cerebrospinal fluid having the composition: NaCl 118 mM, MgCl2 1.18 mM, KCl 4.9 mM, NaH2PO4 1.25 mM, CaCl2 1.25 mM, NaHCO3 3.6 mM, d-glucose 10 mM, HEPES 30 mM, pH 7.4, the temperature of which was maintained at 34±1° C. using a temperature controller (Delta 4 Culture Dish Controller, Bioptechs, Butler, Pa., USA). The electrode was placed under microscopic control (microscope EFN 600, Nikon, Paris, France), 100 μm from the anterior commissure, using an optical micrometer incorporated into the microscope, and then fully descended into the nucleus accumbens septi, at an angle of 45°, and connected to the Biopulse polarograph set in normal differential pulse voltammetry mode with the following parameters: scanning potential −150+350 mV; scanning time 0.4 s, scanning amplitude 4 mV, for a scanning speed of 10 mV.s^−1, 40 ms measuring pulse; 70 ms measuring prepulse; 30 mV measuring amplitude.
The dopaminergic hyperstimulation was induced by adding d-amphetamine to the infusion liquid. Medical air, nitrous oxide or xenon was dissolved, to saturation, before use in the infusion liquid, the pH of which was readjusted to 7.4.

[3] = test system: glutamatergic receptors of AMPA type; conditions: Yakamura and Harris, 2000; cited from earlier work
[4] = test system: N-methyl-D-aspartate glutamatergic receptors; conditions: in vitro; Franks et al. 1998, Jevtovic-Todorovic et al. 1998; cited from earlier work
[5] = test system: posterior and retrosplenial cingulate cortices; assay: histological study of neurons of the posterior and retrosplenial cingulate cortices after repeated gas exposure; type: in vivo, rat; conditions: for histological findings in posterior and retrosplenial cingulate cortices (neurotoxic effect): repeated exposure for 3 consecutive days
Description: as §1
In order to identify the possible neurotoxic potential of repeated exposure (3 hours per day […]) to nitrous oxide or to xenon on the posterior and retrosplenial cingulate cortices, 5 additional groups of animals were pretreated, according to a protocol identical to that defined above, by administration of a saline solution, and then exposed either to air (group 11) or to 50% or 75% nitrous oxide (groups 12 and 13) or to 50% or 75% xenon (groups 14 and 15).
To do this, after treatment, the animals were sacrificed on D8 by decapitation under general anesthesia with halothane, and the cranium was then immediately placed in a paraformaldehyde solution for one week. The brain was removed, coated with paraffin and sectioned into frontal slices of 4 μm mounted on gelatinized slides and stained with a hemalun-eosin-saffron solution. The posterior and retrosplenial cingulate cortices were analyzed using an optical microscope (×400).

weaning from alcohol = conditions: Lichtigfeld and Gillman 1989; cited from earlier work
[6] = toxicity threshold of xenon stated for man; conditions: in man
[7] = gas at 50 vol % or 75 vol % (summary statement)

Compound | locomotor activity in d-amphetamine test on D7, animals pretreated with d-amphetamine versus saline ([1]; d-amphetamine 1 mg/ml/kg i.p. D1-D3, air) | dopamine signal relative to the measured basal signal ([2]; d-amphetamine at 10^-5 M in infusion liquid) | locomotor activity in response to the saline test on D6 (long-term sedative effect) ([1]; gas at 50 vol % or 75 vol %, rats) | blocking of the sensitization process (locomotor activity in d-amphetamine test on D7) ([1]; gas at 50 vol %, rats) | blocking of the sensitization process (locomotor activity in d-amphetamine test on D7) ([1]; gas at 75 vol %, rats) | concentration necessary to block the sensitization process ([1]; rats) | gas effect on acute d-amphetamine test at D7 in rats pretreated with saline solution ([1]; saline-pretreated rats, nitrous oxide exposure D1-D3) | effect on glutamatergic receptors of AMPA type [3] | antagonist affinity for NMDA receptors [4] | histological findings in posterior and retrosplenial cingulate cortices (neurotoxic effect) ([5]; gas at 75 vol %) | increase in dopamine release induced with d-amphetamine [2, 7] | increase in dopamine release induced with d-amphetamine ([2]; gas at 75% by volume in the infusion liquid, d-amphetamine 10^-5 M) | effect on weaning from alcohol (weaning from alcohol) | response to d-amphetamine on D7 in animals pretreated with saline solution ([1]; gas at 75 vol %, versus air or xenon at 50 vol %) | toxicity threshold [6] | histological findings in posterior and retrosplenial cingulate cortices (neurotoxic effect) ([5]; gas at 50 vol %) | toxicity threshold ([5]; in rats) | increase in dopamine release induced with d-amphetamine ([2]; gas at 50% by volume in the infusion liquid, d-amphetamine 10^-5 M)
C[C@H](N)Cc1ccccc1.C[C@H](N)Cc1ccccc1.O=S(=O)(O)O [d-amphetamine, d-amphetamine sulfate] | significantly higher | significant increase |  |  |  |  |  |  |  |  |  |  |  |  |  |  |  | 
[N-]=[N+]=O [nitrous oxide] |  |  | no significant difference | partial blocking | significant blocking | 75 vol % | no “gas” effect | no effect | low affinity | No similar effect | block the increase | significantly reduced | slightly better than the placebo effect |  |  |  |  | 
[Xe] [xenon] |  |  |  | blocking of the sensitization | blocking of the sensitization | 50 vol % |  | no effect | low affinity | generalized cytoplasmic clarification | block the increase |  |  | significant increase | about 60% | No similar effect | about 75% | significantly reduced
